Reference: PubChem BioAssay (NCI)
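GI50 is the concentration that inhibits growth by half. TGI denotes the concentration required for complete inhibition of growth.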

Columns and labels:
Test in all cases: NCI-60 cell line screen, 384-well format
UO-31 renal = system: UO-31 renal
RPMI-8226 leukemia = system: RPMI-8226 leukemia
HOP-62 NSCLC = system: HOP-62 NSCLC
BT-549 breast = system: BT-549 breast
K-562 leukemia = system: K-562 leukemia
SF-268 CNS = system: SF-268 CNS
HL-60(TB) leukemia = system: HL-60(TB) leukemia
HT29 colon = system: HT29 colon
UACC-257 melanoma = system: UACC-257 melanoma
MOLT-4 leukemia = system: MOLT-4 leukemia
OVCAR-8 ovarian = system: OVCAR-8 ovarian
OVCAR-5 ovarian = system: OVCAR-5 ovarian
SK-MEL-5 melanoma = system: SK-MEL-5 melanoma
HCT-15 colon = system: HCT-15 colon
ACHN renal = system: ACHN renal
SF-539 CNS = system: SF-539 CNS
SNB-19 CNS = system: SNB-19 CNS
HCC-2998 colon = system: HCC-2998 colon
SF-295 CNS = system: SF-295 CNS
TK-10 renal = system: TK-10 renal
NCI-H322M lung = system: NCI-H322M lung
CAKI-1 renal = system: CAKI-1 renal
HOP-92 NSCLC = system: HOP-92 NSCLC
PC-3 prostate = system: PC-3 prostate
RXF 393 renal = system: RXF 393 renal
CCRF-CEM leukemia = system: CCRF-CEM leukemia
M14 melanoma = system: M14 melanoma
SR leukemia = system: SR leukemia
NCI-H522 lung = system: NCI-H522 lung
SN12C renal = system: SN12C renal
HS 578T breast = system: HS 578T breast
MDA-MB-231 breast = system: MDA-MB-231 breast
LOX IMVI melanoma = system: LOX IMVI melanoma
SK-OV-3 ovarian = system: SK-OV-3 ovarian
EKVX NSCLC = system: EKVX NSCLC
COLO 205 colon = system: COLO 205 colon
MDA-MB-435 melanoma = system: MDA-MB-435 melanoma
IGROV1 ovarian = system: IGROV1 ovarian
NCI-H226 lung = system: NCI-H226 lung
SNB-75 CNS = system: SNB-75 CNS
OVCAR-4 ovarian = system: OVCAR-4 ovarian
NCI-H23 lung = system: NCI-H23 lung
T-47D breast = system: T-47D breast
SW-620 colon = system: SW-620 colon
DU-145 prostate = system: DU-145 prostate
A498 renal = system: A498 renal
KM12 colon = system: KM12 colon
786-0 renal = system: 786-0 renal
MCF7 breast = system: MCF7 breast
MDA-MB-468 breast = system: MDA-MB-468 breast
SK-MEL-28 melanoma = system: SK-MEL-28 melanoma
UACC-62 melanoma = system: UACC-62 melanoma
MALME-3M melanoma = system: MALME-3M melanoma
NCI/ADR-RES ovarian = system: NCI/ADR-RES ovarian
A549 NSCLC = system: A549 NSCLC
OVCAR-3 ovarian = system: OVCAR-3 ovarian
NCI-H460 NSCLC = system: NCI-H460 NSCLC

C[C@@H]1COCCN1c1nc(-c2cnc(N)cc2C(F)F)nc(N2[C@H](C)COC[C@@H]2C)n1
GI50 (UO-31 renal): 290 nM | TGI (UO-31 renal): 16.3 µM | GI50 (RPMI-8226 leukemia): 16.6 nM | TGI (RPMI-8226 leukemia): 48.5 nM | GI50 (HOP-62 NSCLC): 145 nM | TGI (HOP-62 NSCLC): 4.22 µM | GI50 (BT-549 breast): 97.7 nM | TGI (BT-549 breast): 1140 nM | GI50 (K-562 leukemia): 211 nM | TGI (K-562 leukemia): 1780 nM | GI50 (SF-268 CNS): 228 nM | TGI (SF-268 CNS): 7.71 µM | GI50 (HL-60(TB) leukemia): 466 nM | TGI (HL-60(TB) leukemia): 1660 nM | GI50 (HT29 colon): 281 nM | TGI (HT29 colon): 2440 nM | GI50 (UACC-257 melanoma): 316 nM | TGI (UACC-257 melanoma): 1560 nM | GI50 (MOLT-4 leukemia): 90.3 nM | TGI (MOLT-4 leukemia): 508 nM | GI50 (OVCAR-8 ovarian): 165 nM | TGI (OVCAR-8 ovarian): 11.6 µM | GI50 (OVCAR-5 ovarian): 141 nM | TGI (OVCAR-5 ovarian): 2280 nM | GI50 (SK-MEL-5 melanoma): 53.8 nM | TGI (SK-MEL-5 melanoma): 312 nM | GI50 (HCT-15 colon): 59 nM | TGI (HCT-15 colon): 1330 nM | GI50 (ACHN renal): 81.2 nM | TGI (ACHN renal): 2550 nM | GI50 (SF-539 CNS): 116 nM | TGI (SF-539 CNS): 2450 nM | GI50 (SNB-19 CNS): 711 nM | TGI (SNB-19 CNS): 16.1 µM | GI50 (HCC-2998 colon): 104 nM | TGI (HCC-2998 colon): 1610 nM | GI50 (SF-295 CNS): 41.4 nM | TGI (SF-295 CNS): 369 nM | GI50 (TK-10 renal): 232 nM | TGI (TK-10 renal): 4.55 µM | GI50 (NCI-H322M lung): 95.7 nM | TGI (NCI-H322M lung): 2970 nM | GI50 (CAKI-1 renal): 123 nM | TGI (CAKI-1 renal): 4.84 µM | GI50 (HOP-92 NSCLC): 84.9 nM | TGI (HOP-92 NSCLC): 1570 nM | GI50 (PC-3 prostate): 84.5 nM | TGI (PC-3 prostate): 1960 nM | GI50 (RXF 393 renal): 73.2 nM | TGI (RXF 393 renal): 4.44 µM | GI50 (CCRF-CEM leukemia): 106 nM | TGI (CCRF-CEM leukemia): 1050 nM | GI50 (M14 melanoma): 117 nM | TGI (M14 melanoma): 1490 nM | GI50 (SR leukemia): 32.1 nM | TGI (SR leukemia): 131 nM | GI50 (NCI-H522 lung): 128 nM | TGI (NCI-H522 lung): 1400 nM | GI50 (SN12C renal): 95.9 nM | TGI (SN12C renal): 10.9 µM | GI50 (HS 578T breast): 40.5 nM | TGI (HS 578T breast): 269 nM | GI50 (MDA-MB-231 breast): 61.4 nM | TGI (MDA-MB-231 breast): 14.4 µM | GI50 (LOX IMVI melanoma): 99 nM | TGI (LOX IMVI melanoma): 1100 nM | GI50 (SK-OV-3 ovarian): 53.3 nM | TGI (SK-OV-3 ovarian): 595 nM | GI50 (EKVX NSCLC): 122 nM | TGI (EKVX NSCLC): 1080 nM | GI50 (COLO 205 colon): 152 nM | TGI (COLO 205 colon): 3.48 µM | GI50 (MDA-MB-435 melanoma): 208 nM | TGI (MDA-MB-435 melanoma): 2570 nM | GI50 (IGROV1 ovarian): 36 nM | TGI (IGROV1 ovarian): 238 nM | GI50 (NCI-H226 lung): 75.9 nM | TGI (NCI-H226 lung): 656 nM | GI50 (SNB-75 CNS): 54.9 nM | TGI (SNB-75 CNS): 2100 nM | GI50 (OVCAR-4 ovarian): 68.3 nM | TGI (OVCAR-4 ovarian): 376 nM | GI50 (NCI-H23 lung): 264 nM | TGI (NCI-H23 lung): 2600 nM | GI50 (T-47D breast): 18.7 nM | TGI (T-47D breast): 156 nM | GI50 (SW-620 colon): 319 nM | TGI (SW-620 colon): 11.5 µM | GI50 (DU-145 prostate): 143 nM | TGI (DU-145 prostate): 10.4 µM | GI50 (A498 renal): 23.1 nM | TGI (A498 renal): 407 nM | GI50 (KM12 colon): 144 nM | TGI (KM12 colon): 3.09 µM | GI50 ([…]-0 renal): 116 nM | TGI (786-0 renal): 2780 nM | GI50 (MCF7 breast): 36.6 nM | TGI (MCF7 breast): 1360 nM | GI50 (MDA-MB-468 breast): 54 nM | TGI (MDA-MB-468 breast): 236 nM | GI50 (SK-MEL-28 melanoma): 121 nM | TGI (SK-MEL-28 melanoma): 1170 nM | GI50 (UACC-62 melanoma): 114 nM | TGI (UACC-62 melanoma): 899 nM | GI50 (MALME-3M melanoma): 27.1 nM | TGI (MALME-3M melanoma): 218 nM | GI50 (NCI/ADR-RES ovarian): 291 nM | TGI (NCI/ADR-RES ovarian): 6.44 µM | GI50 (A549 NSCLC): 52.9 nM | TGI (A549 NSCLC): 3.89 µM | GI50 (OVCAR-3 ovarian): 119 nM | TGI (OVCAR-3 ovarian): 10.4 µM | GI50 (NCI-H460 NSCLC): 38.2 nM | TGI (NCI-H460 NSCLC): 1510 nM
